Earlier results as cited in patent US12256762B2, “Sweetener composition and methods of making it” (eBIO Nutritional Sciences LLC, priority 2017, dated 2025).

Conditions: published partition coefficients

| Compound | Partition Coefficient (log P) |
| --- | --- |
| CC/C=C\C/C=C\C/C=C\CCCCCCCC(=O)O [Alpha-Linolenic C18:3] | 6.59 |
| CCCCCCCCCCCCCCCC(=O)O [Palmitic C16:0] | 7.23 |
| CCCCCCCCCCCCCCCCCC(=O)O [Stearic C18:0] | 8.02 |
| Cucurbitacin [reference compound] | 3.19 |
| CCCCC/C=C\C/C=C\CCCCCCCC(=O)O [Linoleic C18:2] | 7.06 |
| CCCCCCCC/C=C\CCCCCCCC(=O)O [Oleic C18:1] | 7.68 |
| C=C1C[C@@]23CC[C@H]4[C@@](C)(CCC[C@@]4(C)C(=O)O)[C@@H]2CC[C@]1(O)C3 [Steviol, reference compound] | 3.18 |
